Measurements: PMC9851200, “Multiparameter phenotypic screening for endogenous TFEB and TFE3 translocation identifies novel chemical series modulating lysosome function” (Autophagy, 2022)
Like-named read-outs stand apart in the source and are kept apart here.

Columns and labels:
SH-SY5Y cells [1] = assay: Nuclear count from microscopy images (cellular growth and toxicity); note: reference of the scale not given here
SH-SY5Y cells [2] = assay: AK (adenylate kinase) release ToxiLight cytotoxicity assay; note: reference of the scale not given here
endogenous TFE3 = assay: TFE3 nuclear translocation, immunocytochemistry high-content imaging; assay type: cell-based
SH-SY5Y cells [3] = test system: SH-SY5Y cells; note: reference of the scale not given here
endogenous TFEB = assay: TFEB nuclear translocation, immunocytochemistry high-content imaging; assay type: cell-based
[4] = PKIS2 primary screening, DQ Red BSA intensity
[5] = PKIS2 primary screening, DQ Red BSA spot count
[6] = PKIS2 primary screen, DQ Red BSA intensity
[7] = PKIS2 primary screen, DQ Red BSA spot count

Row | Compound | Nuclear Count (SH-SY5Y cells [1]; PKIS2 primary screening) | AK (SH-SY5Y cells [2]; PKIS2 primary screening) | TFE3 % (endogenous TFE3; PKIS2 primary screening) [%] | DQ Intensity (SH-SY5Y cells [3]; PKIS2 primary screening) | DQ Spot (SH-SY5Y cells [3]; PKIS2 primary screening) | TFEB % (endogenous TFEB; PKIS2 primary screening) [%] | DQ Intensity (SH-SY5Y cells [3]; [4]) | DQ Spot (SH-SY5Y cells [3]; [5]) | other results
1 | Cc1ccc(NC(=O)c2cccc(C#N)c2)cc1-c1ccc(C(=O)Nc2ccncc2)cc1 [UNC10225263A] | 75.93 | 76.98 | 18.65 | 106.14 | 106.02 | 13.51 | – | – | –
2 | NCCCC(NC(=O)c1cc(Br)c(-c2ccnc3[nH]ccc23)s1)c1ccccc1.O=C(O)C(F)(F)F.O=C(O)C(F)(F)F (stereo not drawn) [UNC10225265A] | 128.28 | 80.18 | 12.13 | – | – | 4.66 | 112.08 | 100.65 | –
3 | O=C(O)C(F)(F)F.O=C(O)C(F)(F)F.O=c1[nH]ccc2nc(N[C@@H]3CCCNC3)nc(Nc3ccc(S(=O)(=O)N4CCOCC4)cc3)c12 [UNC10225269A] | 106.18 | 88.07 | 12.97 | 101.94 | 104.22 | 8.33 | – | – | –
4 | COc1cc2c(Nc3cccc(NC(=O)c4ccccc4)c3)ncnc2cc1OCCCN1CCOCC1 [UNC10225271A] | 122.91 | 98.71 | 10.54 | – | – | 3.87 | 90.70 | 104.52 | –
5 | CNc1nccc(-c2c(-c3ccc(F)cc3)ncn2C2CCN(C)CC2)n1 [UNC10225274A] | 122.34 | 126.95 | 15.08 | 105.02 | 100.15 | 7.89 | – | – | –
6 | CS(=O)(=O)CCNCc1nc(-c2ccc3ncnc(Nc4ccc(OCc5ccccc5)c(Cl)c4)c3c2)cs1.Cl [UNC10225279B] | 87.19 | 96.76 | 17.30 | – | – | 5.66 | 82.64 | 92.63 | –
7 | Cc1cccc(Nc2nc(N[C@H]3CCCC[C@H]3N)ncc2C(N)=O)c1.Cl [UNC10225280A] | 90.29 | 87.17 | 21.69 | 129.29 | 106.20 | 7.12 | – | – | –
8 | Cc1nnc(-c2ccc(C)c(-c3ccc(C(=O)Nc4ccc(NS(C)(=O)=O)cc4)cc3)c2)o1 [UNC10225285A] | 90.38 | 85.18 | 14.74 | 105.08 | 99.25 | 4.26 | – | – | –
9 | C[C@@H](Oc1cc(-n2cnc3ccc(NC(=O)NC(C)(C)C)cc32)sc1C(N)=O)c1ccccc1Cl [UNC10225287A] | 136.32 | 76.21 | 9.35 | 115.96 | 109.60 | 3.50 | – | – | –
10 | c1ccc(-c2n[nH]cc2-c2ccnc3ccccc23)nc1 [UNC10225289A] | 134.93 | 102.26 | – | – | – | – | – | – | TFE3 % (endogenous TFE3): 7.71%; DQ Intensity (SH-SY5Y cells [3]): 80.70; DQ Spot (SH-SY5Y cells [3]): 82.58; TFEB % (endogenous TFEB): 2.12%
11 | COc1ccc2cc(-c3nc(-c4ccccc4C(C)C)[nH]c3-c3ccncc3)ccc2c1 [UNC10225291A] | 105.82 | 85.35 | 9.24 | – | – | 11.56 | 102.38 | 102.77 | –
12 | COc1cccc(C2=C(N(C)c3ccccc3)C(=O)NC2=O)c1 [UNC10225293A] | 78.26 | 74.50 | 13.51 | – | – | 4.50 | 96.89 | 106.44 | –
13 | COc1ccccc1CNC(=O)c1cc(C(=O)c2ccccc2C)c[nH]1 [UNC10225294A] | – | – | – | – | – | – | – | – | Nuclear Count (SH-SY5Y cells [1]; PKIS2 primary screen): 105.84; AK (SH-SY5Y cells [2]; PKIS2 primary screen): 95.17; TFE3 % (endogenous TFE3; PKIS2 primary screen): 19.95%; DQ Intensity (SH-SY5Y cells [3]; [6]): 126.95; DQ Spot (SH-SY5Y cells [3]; [7]): 127.30; TFEB % (endogenous TFEB; PKIS2 primary screen): 4.46%
14 | Cn1cc(-c2ccc3c(c2)CCN3C(=O)Cc2cccc(F)c2)c2c(N)ncnc21 [UNC10225297A] | 104.97 | 109.17 | 15.69 | 118.40 | 112.51 | 6.82 | – | – | –
15 | NS(=O)(=O)c1cccc(N/C=C2\C(=O)Nc3ccc(S(=O)(=O)Cc4c(Cl)cccc4Cl)cc32)c1 [UNC10225298A] | – | – | – | – | – | – | – | – | Nuclear Count (SH-SY5Y cells [1]; PKIS2 primary screen): 112.41; AK (SH-SY5Y cells [2]; PKIS2 primary screen): 117.06; TFE3 % (endogenous TFE3; PKIS2 primary screen): 5.33%; DQ Intensity (SH-SY5Y cells [3]; [6]): 100.02; DQ Spot (SH-SY5Y cells [3]; [7]): 99.79; TFEB % (endogenous TFEB; PKIS2 primary screen): 5.78%
16 | Nc1nc(-c2ccccc2F)c(-c2ccnc3ccccc23)s1 [UNC10225301A] | 129.96 | 75.40 | 14.12 | – | – | 2.45 | 64.84 | 87.10 | –
17 | CCC(CC)(CC)n1cnc2c(N)ncnc21 [UNC10225302A] | 100.18 | 115.78 | 9.37 | 92.29 | 100.17 | 11.64 | – | – | –
18 | COc1cccc2c(-c3ccncc3)c(-c3ccc(F)cc3)nn12 [UNC10225305A] | 99.48 | 95.93 | 7.73 | – | – | 7.57 | 96.09 | 98.66 | –
19 | Cl.Cl.NCC(NC(=O)c1cc(-c2cccnc2)c(-c2ccnc3[nH]ccc23)s1)c1ccccc1 (stereo not drawn) [UNC10225315A] | 113.28 | 87.17 | 8.64 | – | – | 2.45 | 78.29 | 90.57 | –
20 | COc1cc(Nc2nccc(-c3c(-c4cccc(NC(=O)c5c(F)cccc5F)c4)nn4ccccc34)n2)cc(OC)c1OC [UNC10225318A] | 94.38 | 96.57 | 5.80 | 105.65 | 109.19 | 6.03 | – | – | –
21 | Fc1ccc(-c2ncn(CCCN3CCOCC3)c2-c2cccnc2)cc1 [UNC10225320A] | 104.41 | 125.08 | 16.30 | – | – | 7.10 | 94.06 | 100.66 | –
22 | Cc1ccc2c(-c3ccncc3)c(-c3ccc(F)cc3)nn2c1.Cl [UNC10225321A] | 114.41 | 67.03 | 14.14 | – | – | 3.59 | 88.59 | 94.42 | –
23 | CC(C)c1ccc(O)cc1Nc1ccnc2ccc(C(F)(F)F)cc12 [UNC10225322A] | 91.30 | 93.97 | 14.84 | – | – | 7.26 | 103.64 | 104.80 | –
24 | O=C(Nc1cccc(-c2nn3ccccc3c2-c2ccnc(Nc3cccc(C(F)(F)F)c3)n2)c1)c1c(F)cccc1F [UNC10225325A] | 61.45 | 71.36 | 14.69 | 102.24 | 131.00 | 6.17 | – | – | –
25 | O=c1cc(N2CCOCC2)nc2n(Cc3cccc(F)c3)ccn12 [UNC10225332A] | 95.52 | 128.93 | 15.66 | 100.57 | 98.19 | 6.97 | – | – | –
26 | COc1ccc(-c2nc3n(c2-c2ccncc2)CCC3)cc1 [UNC10225334B] | 89.36 | 75.67 | 11.14 | – | – | 9.58 | 91.69 | 94.15 | –
